The values below come from patent publication US10280159B2 (AbbVie Deutschland GmbH & Co. KG, priority 2015, dated 2019).

Usually EC50 stands for the concentration needed to bring the measured effect to its halfway point.

Read-outs that look alike come from different tables or passages of the source.

What all share (assay type): cell-based
One assay has as its target T1, human S1PR1 (Homo sapiens, UniProt P21453).
T1 construct: host or cells: CHO-K1
The experiment in a line: Intracellular Ca2+ release (FLIPR) agonist potency, S1P1. In outline: (§1)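 Readout: FLIPR fluorescence of intracellular Ca2+ release in CHO-K1 cells co-expressing receptor, aequorin and Gq/i5. Data were normalized to the phospho-fingolimod curve; EC50 from nonlinear fit. Phospho-fingolimod served as positive control.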

The target in a further assay is T2, human S1PR5 (Homo sapiens, UniProt Q9H228).
T2 construct: host or cells: CHO-K1
T2 sequence (Q9H228 whole entry): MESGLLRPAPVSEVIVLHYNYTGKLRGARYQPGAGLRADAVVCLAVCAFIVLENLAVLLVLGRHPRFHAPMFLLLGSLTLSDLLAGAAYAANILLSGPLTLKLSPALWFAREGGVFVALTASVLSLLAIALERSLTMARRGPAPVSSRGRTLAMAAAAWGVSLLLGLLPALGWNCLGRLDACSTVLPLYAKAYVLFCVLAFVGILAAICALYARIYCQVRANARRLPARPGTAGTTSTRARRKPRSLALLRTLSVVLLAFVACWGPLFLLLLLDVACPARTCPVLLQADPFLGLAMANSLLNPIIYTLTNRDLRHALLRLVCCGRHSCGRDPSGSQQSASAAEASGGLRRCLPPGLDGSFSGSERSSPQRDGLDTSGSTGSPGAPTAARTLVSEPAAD
The experiment in a line: Intracellular Ca2+ release (FLIPR) agonist potency, S1P5. The conditions noted are these: recombinant CHO-K1 cells expressing human S1PR5, aequorin, Gq/i5, Calcium 5 FLIPR. An outline of the steps:
as §1

For a further assay, the target named is T3, human S1PR4 (Homo sapiens, UniProt O95977).
T3 construct: host or cells: CHO-K1
T3 sequence (O95977 1-384): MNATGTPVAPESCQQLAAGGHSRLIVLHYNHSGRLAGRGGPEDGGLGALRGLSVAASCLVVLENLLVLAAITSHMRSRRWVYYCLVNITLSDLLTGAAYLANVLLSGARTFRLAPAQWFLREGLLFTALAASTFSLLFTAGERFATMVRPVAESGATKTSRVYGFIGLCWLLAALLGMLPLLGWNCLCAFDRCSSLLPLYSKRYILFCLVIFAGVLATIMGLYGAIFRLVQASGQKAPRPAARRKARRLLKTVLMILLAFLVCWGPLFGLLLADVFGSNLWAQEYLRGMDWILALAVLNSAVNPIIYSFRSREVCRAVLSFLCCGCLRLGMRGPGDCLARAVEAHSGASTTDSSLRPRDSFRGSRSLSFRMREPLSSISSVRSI
As to the kind of experiment: Intracellular Ca2+ release (FLIPR) agonist potency, S1P4. An outline of the steps:
as §1

Where [1] appears, read: recombinant CHO-K1 cells expressing human S1PR1, aequorin, Gq/i5, Calcium 5 FLIPR, read-out: S1P1 EC50.
The mark [2] stands for this setting: recombinant CHO-K1 cells expressing human S1PR4, aequorin, Gq/i5, Calcium 5 FLIPR, read-out: S1P4 EC50.

T1 sequence (P21453 whole entry): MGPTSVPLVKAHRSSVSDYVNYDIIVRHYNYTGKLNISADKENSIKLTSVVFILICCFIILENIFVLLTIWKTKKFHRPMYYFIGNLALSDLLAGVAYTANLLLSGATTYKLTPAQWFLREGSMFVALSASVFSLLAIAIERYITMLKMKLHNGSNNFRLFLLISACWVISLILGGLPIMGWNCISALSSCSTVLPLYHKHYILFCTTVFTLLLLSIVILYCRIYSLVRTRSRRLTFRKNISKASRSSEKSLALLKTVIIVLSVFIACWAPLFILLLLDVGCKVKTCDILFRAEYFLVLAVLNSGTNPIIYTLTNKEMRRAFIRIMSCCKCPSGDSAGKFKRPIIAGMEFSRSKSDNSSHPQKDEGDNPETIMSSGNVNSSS

Take `CCc1cccc(Cl)c1COc1ccc2c(c1)OCC(NC1(CC(=O)O)CCCC1)C2` (stereo not drawn) [Compound 115, 2-(1-((7-((2-chloro-6-ethylbenzyl)oxy)chroman-3-yl)amino)cyclopentyl) acetic acid]: the values for the EC50 on human S1PR1 (setting [1]), at human S1PR5 (read-out: S1P5 EC50 range) and on human S1PR4 (setting [2]) were greater than 1 µM, less than 0.01 µM and less than 1 µM, respectively.

For the compound `CCc1cccc(Cl)c1COc1ccc2c(c1)OCC(NC1(CC(=O)O)CCC1)C2` (stereo not drawn) [Compound 116, 2-(1-((7-((2-chloro-6-ethylbenzyl)oxy)chroman-3-yl)amino)cyclobutyl)acetic acid], the values for the EC50 on human S1PR1 (setting [1]), on human S1PR5 (read-out: S1P5 EC50 range) and at human S1PR4 (setting [2]) were greater than 1 µM, less than 0.01 µM and less than 1 µM, respectively.

On to `CCc1cccc(F)c1COc1ccc2c(c1)OCC(NC1(CC(=O)O)CCCC1)C2` (stereo not drawn) [Compound 117, 2-(1-((7-((2-ethyl-6-fluorobenzyl)oxy)chroman-3-yl)amino)cyclopentyl) acetic acid], for which the EC50 on human S1PR1 (setting [1]) is greater than 1 µM; on human S1PR5 (read-out: S1P5 EC50 range), less than 0.01 µM; on human S1PR4 (setting [2]), less than 1 µM.

With `CCc1cccc(F)c1COc1ccc2c(c1)OCC(NC1(CC(=O)O)CCC1)C2` (stereo not drawn) [Compound 118, 2-(1-((7-((2-ethyl-6-fluorobenzyl)oxy)chroman-3-yl)amino)cyclobutyl)acetic acid], the EC50 on human S1PR1 (setting [1]) was greater than 1 µM; on human S1PR5 (read-out: S1P5 EC50 range) it was less than 0.01 µM; on human S1PR4 (setting [2]) it was less than 1 µM.

`O=C(O)C1(NC2COc3cc(OCc4c(Cl)cccc4Cl)ccc3C2)CCC1` (stereo not drawn) [Compound 119, 1-((7-((2,6-dichlorobenzyl)oxy)chroman-3-yl)amino)cyclobutane-1-carboxylic acid]: the half-maximal effective concentration (EC50) is greater than 1 µM on human S1PR1 (setting [1]), 1 to 10 µM at human S1PR5 (read-out: S1P5 EC50 range) and greater than 1 µM on human S1PR4 (setting [2]).

With `CCc1cccc(Cl)c1COc1ccc2c(c1)OCC(NC1(C(=O)O)CCC1)C2` (stereo not drawn) [Compound 120, 1-((7-((2-chloro-6-ethylbenzyl)oxy)chroman-3-yl)amino)cyclobutane-1-carboxylic acid], the EC50 on human S1PR1 (setting [1]) is less than 1 µM; on human S1PR5 (read-out: S1P5 EC50 range), 0.01 to 0.1 µM; on human S1PR4 (setting [2]), less than 1 µM.

Consider `CCc1cccc(Cl)c1COc1ccc2c(c1)OCC(NC13CC(C(=O)O)(C1)C3)C2` (stereo not drawn) [Compound 121, 3-((7-((2-chloro-6-ethylbenzyl)oxy)chroman-3-yl)amino)bicyclo[1.1.1]pentane-1-carboxylic acid], for which the EC50 on human S1PR1 (setting [1]) was greater than 1 µM; on human S1PR5 (read-out: S1P5 EC50 range), 0.1 to 1 µM; at human S1PR4 (setting [2]), less than 1 µM.

For `CCc1cccc(F)c1COc1ccc2c(c1)OCC(NC13CC(C(=O)O)(C1)C3)C2` (stereo not drawn) [Compound 122, 3-((7-((2-ethyl-6-fluorobenzyl)oxy)chroman-3-yl)amino)bicyclo[1.1.1]pentane-1-carboxylic acid], the values for the EC50 at human S1PR1 (setting [1]), at human S1PR5 (read-out: S1P5 EC50 range) and on human S1PR4 (setting [2]) were greater than 1 µM, 0.01 to 0.1 µM and less than 1 µM, respectively.

On to `CCc1cccc(Cl)c1COc1ccc2c(c1)OCC(N(C)CC(=O)O)C2` (stereo not drawn) [Compound 124, N-(7-((2-chloro-6-ethylbenzyl)oxy)chroman-3-yl)-N-methylglycine], for which the values for the EC50 on human S1PR1 (setting [1]), on human S1PR5 (read-out: S1P5 EC50 range) and on human S1PR4 (setting [2]) were greater than 1 µM, less than 0.01 µM and less than 1 µM, respectively.

As for `CCc1cccc(Cl)c1COc1ccc2c(c1)OCC(N1CCC(CC(=O)O)C1)C2` (stereo not drawn) [Compound 125, 2-(1-(7-((2-chloro-6-ethylbenzyl)oxy)chroman-3-yl)pyrrolidin-3-yl)acetic acid], the values for the EC50 on human S1PR1 (setting [1]), on human S1PR5 (read-out: S1P5 EC50 range) and on human S1PR4 (setting [2]) were greater than 1 µM, less than 0.01 µM and less than 1 µM, respectively.

Take `CCc1cccc(F)c1COc1ccc2c(c1)OCC(NCC(=O)O)C2` (stereo not drawn) [Compound 126, (7-((2-ethyl-6-fluorobenzyl)oxy)chroman-3-yl)glycine]: the EC50 at human S1PR1 (setting [1]) is greater than 1 µM; at human S1PR5 (read-out: S1P5 EC50 range), less than 0.01 µM; on human S1PR4 (setting [2]) it was less than 1 µM.

For the compound `CCc1cccc(F)c1COc1ccc2c(c1)OCC(N1CCC(C(=O)O)C1)C2` (stereo not drawn) [Compound 127, 1-(7-((2-ethyl-6-fluorobenzyl)oxy)chroman-3-yl)pyrrolidine-3-carboxylic acid], the values for the EC50 on human S1PR1 (setting [1]), on human S1PR5 (read-out: S1P5 EC50 range) and at human S1PR4 (setting [2]) were greater than 1 µM, less than 0.01 µM and less than 1 µM, respectively.

On to `CCc1cccc(Cl)c1COc1ccc2c(c1)OCC(N1CCC(C(=O)O)C1)C2` (stereo not drawn) [Compound 128, 1-(7-((2-chloro-6-ethylbenzyl)oxy)chroman-3-yl)pyrrolidine-3-carboxylic acid], for which the EC50 is greater than 1 µM on human S1PR1 (setting [1]), less than 0.01 µM on human S1PR5 (read-out: S1P5 EC50 range) and less than 1 µM at human S1PR4 (setting [2]).

Regarding `CCc1cccc(F)c1COc1ccc2c(c1)OCC(NC1(CC(=O)O)CC1)C2` (stereo not drawn) [Compound 129, 2-(1-((7-((2-ethyl-6-fluorobenzyl)oxy)chroman-3-yl)amino)cyclopropyl) acetic acid], the EC50 on human S1PR1 (setting [1]) is greater than 1 µM; on human S1PR5 (read-out: S1P5 EC50 range), less than 0.01 µM; at human S1PR4 (setting [2]), greater than 1 µM.

Regarding `CCc1cccc(F)c1COc1ccc2c(c1)OCC(N1CCC(CC(=O)O)C1)C2` (stereo not drawn) [Compound 130, 2-(1-(7-((2-ethyl-6-fluorobenzyl)oxy)chroman-3-yl)pyrrolidin-3-yl)acetic acid], the figures for the EC50 at human S1PR1 (setting [1]), on human S1PR5 (read-out: S1P5 EC50 range) and on human S1PR4 (setting [2]) were greater than 1 µM, less than 0.01 µM and less than 1 µM, respectively.

Turning to `O=C(O)CNC1COc2cc(-c3ccc(OCc4cccc(F)c4F)cc3)ccc2C1` (stereo not drawn) [Compound 131, (7-(4-((2,3-difluorobenzyl)oxy)phenyl)chroman-3-yl)glycine], the EC50 was less than 1 µM at human S1PR1 (setting [1]), less than 0.01 µM on human S1PR5 (read-out: S1P5 EC50 range) and greater than 1 µM on human S1PR4 (setting [2]).

For `O=C(O)CNC1COc2cc(OCc3ccc(OCc4cccc(Cl)c4)cc3)ccc2C1` (stereo not drawn) [Compound 132, (7-((4-((3-chlorobenzyl)oxy)benzyl)oxy)chroman-3-yl)glycine], the EC50 is greater than 1 µM at human S1PR1 (setting [1]), less than 0.01 µM at human S1PR5 (read-out: S1P5 EC50 range) and greater than 1 µM on human S1PR4 (setting [2]).

For `CN(CC(=O)O)C1COc2cc(OCc3ccc(OCc4cccc(F)c4F)cc3)ccc2C1` (stereo not drawn) [Compound 133, N-(7-((4-((2,3-difluorobenzyl)oxy)benzyl)oxy)chroman-3-yl)-N-methylglycine], the results for the EC50 at human S1PR1 (setting [1]), at human S1PR5 (read-out: S1P5 EC50 range) and on human S1PR4 (setting [2]) were less than 1 µM, less than 0.01 µM and greater than 1 µM, respectively.

With `CN(CC(=O)O)C1COc2cc(OCc3ccc(OCc4cccc(Cl)c4)cc3)ccc2C1` (stereo not drawn) [Compound 134, N-(7-((4-((3-chlorobenzyl)oxy)benzyl)oxy)chroman-3-yl)-N-methylglycine], the EC50 on human S1PR1 (setting [1]) is greater than 1 µM; at human S1PR5 (read-out: S1P5 EC50 range), less than 0.01 µM; at human S1PR4 (setting [2]) it was greater than 1 µM.

As for `CN(CC(=O)O)C1COc2cc(OCc3ccc(OCc4ccc(Cl)cc4)cc3)ccc2C1` (stereo not drawn) [Compound 135, N-(7-((4-((4-chlorobenzyl)oxy)benzyl)oxy)chroman-3-yl)-N-methylglycine], the EC50 was greater than 1 µM at human S1PR1 (setting [1]), 0.01 to 0.1 µM at human S1PR5 (read-out: S1P5 EC50 range) and greater than 1 µM at human S1PR4 (setting [2]).

Regarding `CCc1cccc(F)c1COc1ccc2c(c1)OC[C@@H](NCc1cc(O)no1)C2` [Compound 136, (S)-5-(((7-((2-ethyl-6-fluorobenzyl)oxy)chroman-3-yl)amino)methyl)isoxazol-3-ol], the EC50 on human S1PR1 was greater than 1 µM; at human S1PR5 (S1P5 EC50 range), less than 0.01 µM; at human S1PR4, less than 1 µM.

Consider `CC1(C(=O)O)CN([C@@H]2COc3cc(OCc4c(Cl)cccc4Cl)ccc3C2)C1` [Compound 138, (S)-1-(7-((2,6-dichlorobenzyl)oxy)chroman-3-yl)-3-methylazetidine-3-carboxylic acid], for which the EC50 on human S1PR1 (setting [1]) is greater than 1 µM; at human S1PR5 (read-out: S1P5 EC50 range) it was less than 0.01 µM; on human S1PR4 (setting [2]), greater than 1 µM.

As to `CCc1cccc(F)c1COc1ccc2c(c1)OC[C@@H](N1CC(C)(C(=O)O)C1)C2` [Compound 139, (S)-1-(7-((2-ethyl-6-fluorobenzyl)oxy)chroman-3-yl)-3-methylazetidine-3-carboxylic acid], the EC50 on human S1PR1 (setting [1]) is greater than 1 µM; on human S1PR5 (read-out: S1P5 EC50 range), less than 0.01 µM; on human S1PR4 (setting [2]), less than 1 µM.

`CCC1(C(=O)O)CN([C@@H]2COc3cc(OCc4c(Cl)cccc4Cl)ccc3C2)C1` [Compound 140, (S)-1-(7-((2,6-dichlorobenzyl)oxy)chroman-3-yl)-3-ethylazetidine-3-carboxylic acid]: the EC50 was greater than 1 µM at human S1PR1 (setting [1]), 1 to 10 µM at human S1PR5 (read-out: S1P5 EC50 range) and greater than 1 µM at human S1PR4 (setting [2]).

For `CCCC1(C(=O)O)CN([C@@H]2COc3cc(OCc4c(Cl)cccc4Cl)ccc3C2)C1` [Compound 141, (S)-1-(7-((2,6-dichlorobenzyl)oxy)chroman-3-yl)-3-propylazetidine-3-carboxylic acid], the results for the EC50 at human S1PR1 (setting [1]), on human S1PR5 (read-out: S1P5 EC50 range) and on human S1PR4 (setting [2]) were greater than 1 µM, 1 to 10 µM and greater than 1 µM, respectively.

In the case of `CCc1cccc(Cl)c1COc1ccc2c(c1)CCC(OCC(=O)O)C2` (stereo not drawn) [Compound 142], the EC50 at human S1PR1 (setting [1]) is greater than 1 µM; at human S1PR5 (read-out: S1P5 EC50 range), less than 0.01 µM; at human S1PR4 (setting [2]), greater than 1 µM.

Take `O=C(O)COC1CCc2cc(OCc3c(Cl)cccc3C3CC3)ccc2C1` (stereo not drawn) [Compound 143, 2-((6-((2-chloro-6-cyclopropylbenzyl)oxy)-1,2,3,4-tetrahydronaphthalen-2-yl)oxy)acetic acid]: the EC50 at human S1PR1 (setting [1]) is greater than 1 µM; on human S1PR5 (read-out: S1P5 EC50 range), less than 0.01 µM; on human S1PR4 (setting [2]), greater than 1 µM.
